Experiments:
Assay type in all cases: in vivo
[1] = test system: Russian thistle (Salsola kali); test: Test E pre-/postemergence plant response; conditions: Preemergence, scale 0 to 100
Procedure, shortened: (§1)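 Pre- and postemergence greenhouse test; compounds formulated in non-phytotoxic solvent with surfactant, postemergence plants 2–18 cm (1- to 4-leaf stage). Visual rating against untreated controls after 14 to 21 days, on a 0 (no effect) to 100 (complete control) scale.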

[2] = test system: Virginia (V.) dayflower (Commelina virginica); test: Test E pre-/postemergence plant response; conditions: scale 0 to 100
Procedure, shortened: as §1

[3] = test system: common chickweed (Stellaria media); test: Test E pre-/postemergence plant response; conditions: scale 0 to 100
Procedure, shortened: as §1

[4] = test system: common sowthistle (Sonchus oleraceous); test: Test E pre-/postemergence plant response; conditions: scale 0 to 100
Procedure, shortened: as §1

[5] = test system: barnyardgrass (Echinochloa crus-galli); test: Test D flooded paddy plant response; conditions: Flood, scale 0 to 100 (0 no effect, 100 complete control), 21 days
Source text: (§2) Three plastic pots (ca. 16-cm diameter) for each application rate were partially filled with sterilized Tama silt loam soil comprising a 35:50:15 ratio of sand, silt and clay and 2.6% organic matter. Separate plantings for each of the three pots were as follows. Seeds from the U.S. of ducksalad (Heteranthera limosa), umbrella sedge (Cyperus difformis) and purple redstem (Ammannia coccinea), were planted into one 16-cm pot for each rate. Seeds from the U.S. of rice flatsedge (Cyperus iria), bearded (Brdd.) sprangletop (Leptochloa fascicularis), one stand of 9 or 10 water-seeded rice seedlings (Oryza sativa cv. ‘Japonica—M202’), and one stand of 6 transplanted rice seedlings (Oryza sativa cv. ‘Japonica—M202’) were planted into one 16-cm pot for each rate. Seeds from the U.S. of barnyardgrass (Echinochloa crus-galli), late watergrass (Echinochloa oryzicola), early watergrass (Echinochloa oryzoides) and junglerice (Echinochloa colona) were planted into one 16-cm pot for each rate. Plantings were sequential so that crop and weed species were at the 2.0 to 2.5-leaf stage at time of treatment.
(§3) Potted plants were grown in a greenhouse with day/night temperature settings of 30/27° C., and supplemental balanced lighting was provided to maintain a 16-hour photoperiod. Test pots were maintained in the greenhouse until test completion.
(§4) At time of treatment, test pots were flooded to 3 cm above the soil surface, treated by application of test compounds directly to the paddy water, and then maintained at that water depth for the duration of the test. Effects of treatments on rice and weeds were visually evaluated by comparison to untreated controls after 21 days. Plant response ratings, summarized in Table D, are based on a scale of 0 to 100 where 0 is no effect and 100 is complete control. A dash (-) response means no test result.

[6] = test system: bearded (Brdd.) sprangletop (Leptochloa fascicularis); test: Test D flooded paddy plant response; conditions: Flood, scale 0 to 100 (0 no effect, 100 complete control), 21 days
Source text: as §2, §3, §4

[7] = test system: ducksalad (Heteranthera limosa); test: Test D flooded paddy plant response; conditions: Flood, scale 0 to 100 (0 no effect, 100 complete control), 21 days
Source text: as §2, §3, §4

[8] = test system: early watergrass (Echinochloa oryzoides); test: Test D flooded paddy plant response; conditions: Flood, scale 0 to 100 (0 no effect, 100 complete control), 21 days
Source text: as §2, §3, §4

[9] = test system: late watergrass (Echinochloa oryzicola); test: Test D flooded paddy plant response; conditions: Flood, scale 0 to 100 (0 no effect, 100 complete control), 21 days
Source text: as §2, §3, §4

[10] = test system: purple redstem (Ammannia coccinea); test: Test D flooded paddy plant response; conditions: Flood, scale 0 to 100 (0 no effect, 100 complete control), 21 days
Source text: as §2, §3, §4

[11] = test system: rice flatsedge (Cyperus iria); test: Test D flooded paddy plant response; conditions: Flood, scale 0 to 100 (0 no effect, 100 complete control), 21 days
Source text: as §2, §3, §4

[12] = test system: transplanted rice seedlings (Oryza sativa cv. ‘Japonica—M202’); test: Test D flooded paddy plant response; conditions: Flood, scale 0 to 100 (0 no effect, 100 complete control), 21 days
Source text: as §2, §3, §4

[13] = test system: umbrella sedge (Cyperus difformis); test: Test D flooded paddy plant response; conditions: Flood, scale 0 to 100 (0 no effect, 100 complete control), 21 days
Source text: as §2, §3, §4

CCc1cc(-c2ccc(C(F)(F)F)cc2)nn1-c1c(OC(=O)OC(C)C)cnn(C)c1=O [Compound 12]
0: Plant response rating, Thistle, Russian ([1]; 4 g ai/ha) | Plant response rating, Dayflower, V. ([2]; 4 g ai/ha, Postemergence) | Plant response rating, Dayflower, V. ([2]; 8 g ai/ha, Preemergence) | Plant response rating, Dayflower, V. ([2]; 31 g ai/ha, Preemergence) | Plant response rating, Dayflower, V. ([2]; Postemergence, 8 g ai/ha) | Plant response rating, Dayflower, V. ([2]; Postemergence, 31 g ai/ha) | Plant response rating, Dayflower, V. ([2]; Preemergence, 4 g ai/ha) | Plant response rating, Chickweed ([3]; 4 g ai/ha, Postemergence) | Plant response rating, Chickweed ([3]; Postemergence, 8 g ai/ha) | Plant response rating, Chickweed ([3]; Postemergence, 31 g ai/ha) | Plant response rating, Sowthistle ([4]; 4 g ai/ha, Postemergence) | Plant response rating, Sowthistle ([4]; Postemergence, 8 g ai/ha) | Plant response rating, Sowthistle ([4]; Postemergence, 31 g ai/ha) | Plant response rating, Sowthistle ([4]; Preemergence, 4 g ai/ha)

CCc1cc(-c2ccc(Cl)cc2)nn1-c1c(O)cnn(C)c1=O [Compound 21]
60: Plant response rating, Barnyardgrass ([5]; 32 g ai/ha) | Plant response rating, Watergrass, Late ([9]; 64 g ai/ha)
65: Plant response rating, Watergrass, Early ([8]; 64 g ai/ha) | Plant response rating, Rice, Transplanted ([12]; 250 g ai/ha)
70: Plant response rating, Flatsedge, Rice ([11]; 64 g ai/ha) | Plant response rating, Flatsedge, Rice ([11]; 125 g ai/ha) | Plant response rating, Flatsedge, Rice ([11]; 250 g ai/ha)
80: Plant response rating, Sprangletop, Brdd. ([6]; 64 g ai/ha)
40: Plant response rating, Watergrass, Early ([8]; 32 g ai/ha)
50: Plant response rating, Rice, Transplanted ([12]; 125 g ai/ha)
30: Plant response rating, Sprangletop, Brdd. ([6]; 16 g ai/ha) | Plant response rating, Sprangletop, Brdd. ([6]; 32 g ai/ha) | Plant response rating, Watergrass, Late ([9]; 32 g ai/ha)
0: Plant response rating, Barnyardgrass ([5]; 16 g ai/ha) | Plant response rating, Ducksalad ([7]; 16 g ai/ha) | Plant response rating, Ducksalad ([7]; 32 g ai/ha) | Plant response rating, Ducksalad ([7]; 64 g ai/ha) | Plant response rating, Ducksalad ([7]; 125 g ai/ha) | Plant response rating, Ducksalad ([7]; 250 g ai/ha) | Plant response rating, Watergrass, Early ([8]; 16 g ai/ha) | Plant response rating, Watergrass, Late ([9]; 16 g ai/ha) | Plant response rating, Redstem, Purple ([10]; 16 g ai/ha) | Plant response rating, Redstem, Purple ([10]; 32 g ai/ha) | Plant response rating, Redstem, Purple ([10]; 64 g ai/ha) | Plant response rating, Redstem, Purple ([10]; 125 g ai/ha) | Plant response rating, Redstem, Purple ([10]; 250 g ai/ha) | Plant response rating, Flatsedge, Rice ([11]; 16 g ai/ha) | Plant response rating, Flatsedge, Rice ([11]; 32 g ai/ha) | Plant response rating, Rice, Transplanted ([12]; 16 g ai/ha) | Plant response rating, Rice, Transplanted ([12]; 32 g ai/ha) | Plant response rating, Rice, Transplanted ([12]; 64 g ai/ha) | Plant response rating, Sedge, Umbrella ([13]; 16 g ai/ha) | Plant response rating, Sedge, Umbrella ([13]; 32 g ai/ha) | Plant response rating, Sedge, Umbrella ([13]; 64 g ai/ha) | Plant response rating, Sedge, Umbrella ([13]; 125 g ai/ha) | Plant response rating, Sedge, Umbrella ([13]; 250 g ai/ha) | Plant response rating, Chickweed ([3]; Postemergence, 31 g ai/ha)
100: Plant response rating, Barnyardgrass ([5]; 64 g ai/ha) | Plant response rating, Barnyardgrass ([5]; 125 g ai/ha) | Plant response rating, Barnyardgrass ([5]; 250 g ai/ha) | Plant response rating, Sprangletop, Brdd. ([6]; 125 g ai/ha) | Plant response rating, Sprangletop, Brdd. ([6]; 250 g ai/ha) | Plant response rating, Watergrass, Early ([8]; 125 g ai/ha) | Plant response rating, Watergrass, Early ([8]; 250 g ai/ha) | Plant response rating, Watergrass, Late ([9]; 125 g ai/ha) | Plant response rating, Watergrass, Late ([9]; 250 g ai/ha)

Cc1cc(-c2ccc(Cl)cc2)nn1-c1c(OC(=O)c2cccc(Cl)c2)cnn(C)c1=O [Compound 32]
0: Plant response rating, Dayflower, V. ([2]; Postemergence, 8 g ai/ha) | Plant response rating, Dayflower, V. ([2]; Postemergence, 16 g ai/ha) | Plant response rating, Dayflower, V. ([2]; Postemergence, 31 g ai/ha) | Plant response rating, Dayflower, V. ([2]; Postemergence, 62 g ai/ha) | Plant response rating, Sowthistle ([4]; Postemergence, 8 g ai/ha) | Plant response rating, Sowthistle ([4]; Postemergence, 16 g ai/ha) | Plant response rating, Sowthistle ([4]; Postemergence, 31 g ai/ha) | Plant response rating, Sowthistle ([4]; Postemergence, 62 g ai/ha)

Cc1cc(-c2ccc(Cl)cc2)nn1-c1c(OS(=O)(=O)c2ccccc2)cnn(C)c1=O [Compound 35]
0: Plant response rating, Chickweed ([3]; Postemergence, 8 g ai/ha) | Plant response rating, Chickweed ([3]; Postemergence, 16 g ai/ha) | Plant response rating, Chickweed ([3]; Postemergence, 31 g ai/ha)

CCOC(=O)Oc1cnn(C)c(=O)c1-n1nc(-c2ccc(Cl)cc2)cc1C [Compound 53]
0: Plant response rating, Thistle, Russian ([1]; 16 g ai/ha) | Plant response rating, Thistle, Russian ([1]; 31 g ai/ha) | Plant response rating, Thistle, Russian ([1]; 62 g ai/ha) | Plant response rating, Dayflower, V. ([2]; 16 g ai/ha, Preemergence) | Plant response rating, Dayflower, V. ([2]; 31 g ai/ha, Preemergence) | Plant response rating, Dayflower, V. ([2]; 62 g ai/ha, Preemergence) | Plant response rating, Dayflower, V. ([2]; Postemergence, 8 g ai/ha) | Plant response rating, Dayflower, V. ([2]; Postemergence, 16 g ai/ha) | Plant response rating, Dayflower, V. ([2]; Postemergence, 31 g ai/ha) | Plant response rating, Dayflower, V. ([2]; Postemergence, 62 g ai/ha) | Plant response rating, Chickweed ([3]; 62 g ai/ha, Preemergence) | Plant response rating, Sowthistle ([4]; 16 g ai/ha, Preemergence) | Plant response rating, Sowthistle ([4]; 31 g ai/ha, Preemergence) | Plant response rating, Sowthistle ([4]; 62 g ai/ha, Preemergence) | Plant response rating, Sowthistle ([4]; Postemergence, 8 g ai/ha) | Plant response rating, Sowthistle ([4]; Postemergence, 16 g ai/ha) | Plant response rating, Sowthistle ([4]; Postemergence, 31 g ai/ha) | Plant response rating, Sowthistle ([4]; Postemergence, 62 g ai/ha)

Cc1cc(-c2ccc(Cl)cc2)nn1-c1c(OC(=O)Oc2ccccc2)cnn(C)c1=O [Compound 54]
0: Plant response rating, Dayflower, V. ([2]; 8 g ai/ha, Postemergence) | Plant response rating, Dayflower, V. ([2]; Postemergence, 16 g ai/ha) | Plant response rating, Dayflower, V. ([2]; Postemergence, 31 g ai/ha) | Plant response rating, Dayflower, V. ([2]; Postemergence, 62 g ai/ha) | Plant response rating, Sowthistle ([4]; 8 g ai/ha, Postemergence) | Plant response rating, Sowthistle ([4]; Postemergence, 16 g ai/ha) | Plant response rating, Sowthistle ([4]; Postemergence, 31 g ai/ha) | Plant response rating, Sowthistle ([4]; Postemergence, 62 g ai/ha)

Source: US20100267561A1, “HERBICIDAL PYRIDAZINONE DERIVATIVES” (priority 2007, published 2010)
